Measurements taken from US11465974B2, “Crystalline polymorphs of Pracinostat and Pracinostat salts” (ASSIA CHEMICAL INDUSTRIES LTD., priority 2017, dated 2022).
Counter-ions that a name gives are not always drawn.

Legend:
Type in all cases: physicochemical
[1] = Grinding stability test; settings: ground by mortar and pestle for 1 minute at room temperature, without solvent or with one drop of ethanol, isopropyl alcohol or water
Experimental: Grinding stability test: The tested sample was grinded by moltal&pestle for 1 minute at room temperature either without a solvent or with one drop of solvent from the following solvents: Ethanol, Isopropyl alcohol and water.

[2] = Hygroscopicity (absorption of water, determined for example by TGA)
Text: As used herein the term non-hygroscopic in relation to crystalline forms of Pracinostat refers to less than 0.2% (w/w) absorption of water, by the crystalline form of Pracinostat, as determined for example by TGA. Water can be for example atmospheric water.

[3] = Physical pressure stability test; settings: 3 ton pressure for 1 minute at room temperature
Experimental: Physical pressure stability test: The tested sample was exposed to 3 ton pressure for 1 minute at room temperature.

[4] = Polymorphic stability at relative humidity 0% to 100%; settings: RH of from 0% to 100%, room temperature
[5] = Thermal stability test; settings: heated to 100° C. for 30 minutes at open dish
Experimental: Thermal stability test: The tested sample was heated to temperature of 100° C. for 30 minutes at open dish.

SMILES | stability under grinding [1] | absorption of water (hygroscopicity) [2] | stability under physical pressure [3] | period of polymorphic stability [4] | stability under thermal test [5]
CCCCc1nc2cc(/C=C/C(=O)NO)ccc2n1CCN(CC)CC [Pracinostat sulfate Form S1] | stable | less than 2 % (w/w) | stable | at least 7 days | stable
CCCCc1nc2cc(/C=C/C(=O)NO)ccc2n1CCN(CC)CC [Form P3, (E)-3-[2-Butyl-1-[2-(diethylamino)ethyl]-1H-benzo[d]imidazol-5-yl]-N-hydroxy-acrylamide] | stable | less than 0.2 % (w/w) | stable | at least 7 days | stable
CCCCc1nc2cc(/C=C/C(=O)NO)ccc2n1CCN(CC)CC [Form P7, (E)-3-[2-Butyl-1-[2-(diethylamino)ethyl]-1H-benzo[d]imidazol-5-yl]-N-hydroxy-acrylamide] | stable | less than 0.2 % (w/w) | stable | at least 7 days | stable
